These results are taken from BindingDB's records for PubMed 39140043 (Usona Institute).

The assay has as its target GTPase KRas (Homo sapiens, UniProt P01116). The experiment in a line: Inhibition of GDP bound KRAS G12V mutant (unknown origin).

Chain of GTPase KRas (P01116 whole entry G12V): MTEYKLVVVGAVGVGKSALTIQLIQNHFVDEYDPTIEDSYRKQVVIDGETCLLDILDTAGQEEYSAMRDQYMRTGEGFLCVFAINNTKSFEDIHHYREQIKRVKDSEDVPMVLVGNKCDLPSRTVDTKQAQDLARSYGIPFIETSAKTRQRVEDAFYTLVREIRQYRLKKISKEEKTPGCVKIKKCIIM

Regarding `C#Cc1c(F)ccc2cc(O)cc(-c3ncc4c(N(C)[C@H]5C[C@@H]5F)nc(OCC56CCCN5CC(=C)C6)nc4c3F)c12` (stereo partly specified), the half-maximal inhibitory concentration (IC50) worked out at 0.371 nM.
